Laboratory results taken from patent publication US20240327414A1, “CYCLOPROPYL-(HETERO)ARYL-SUBSTITUTED ETHYL- SULFONE / SULFOXIMINE-PYRIDINE N-OXIDE DERIVATIVES” (Boehringer Ingelheim Vetmedica GmbH, priority 2023, published 2024).

Legend:
[1] = tested on: adult Ctenocephalides felis fleas; assay: Contact activity against adult Ctenocephalides felis; details: adult C. felis, mortality at 72 hours post-treatment
Experimental: Example 4: Screening Method to Test Contact Activity of N-Oxide Compounds of Formula (I), (Ia) or (Ib) Against Adult Ctenocephalides felis
N-oxide compounds of formula (I), (Ia) and (Ib) dissolved in 100% DMSO are diluted in acetone to a desired concentration. The resulting formulation is used to coat the fibers of a 0.5-inch-long piece of pipe cleaner placed in a glass scintillation vial. The vial is capped with a rubber gasket and filter paper insert. After the acetone has evaporated, ten adult Ctenocephalides felis fleas are added to each vial. The vials are then incubated at 22° C., 80% relative humidity, and 12 hours of light/12 hours of dark until a visual evaluation for mortality is performed at 72 hours post-treatment. Compound efficacy at a given dose is expressed as percentage mortality and adjusted to remove background mortality observed in control vials containing DMSO only. A dose response series of treated vials is implemented to determine EC50 values.

[2] = tested on: adult C. felis fleas; assay: Ingestion activity against adult Ctenocephalides felis (membrane feeding, motility); details: 48 h, ingestion in bovine blood, % motility reduction 48h post treatment
Experimental: Example 6: Screening Method to Test Ingestion Activity of N-Oxide Compounds of Formula (I), (Ia) or (Ib) Against Adult Ctenocephalides felis
N-oxide compounds of formula (I), (Ia) and (Ib) dissolved in 100% DMSO are added to bovine blood and offered via an artificial membrane feeding system to adult C. felis fleas. The motility of fleas is then visually inspected 48h post treatment. Efficacy is expressed in % motility reduction compared to controls containing blood treated with DMSO only. A dose response series is implemented to determine EC50 values.

[3] = tested on: adult C. felis fleas; assay: Ingestion activity against adult Ctenocephalides felis (alternative method, membrane feeding, mortality); details: bovine blood, mortality at 48 hours post-treatment
Experimental: Selected N-oxide compounds of formula (I), (Ia) and (Ib) and compound “P23” of WO 2016/030229 dissolved in 100% DMSO are diluted in bovine blood with sodium heparin anti-coagulant. The resulting formulation is offered via an artificial membrane feeding system to approximately 15 adult C. felis fleas previously dispensed into 24-well plates. The plates are then incubated in a double-chambered device. Visual evaluation for mortality is performed at 48 hours post-treatment. Compound efficacy at a given dose is expressed as percentage mortality and determined by normalization to positive and negative controls. A dose response series is implemented to determine EC50 values.
Example 7: Screening Method to Test Ingestion Activity of N-Oxide Compounds of Formula (I), (Ia) or (Ib) Against Adult Ctenocephalides felis (Alternative Method)
N-oxide compounds of formula (I), (Ia) and (Ib) dissolved in 100% DMSO are diluted in bovine blood with sodium heparin anti-coagulant. The resulting formulation is offered via an artificial membrane feeding system to approximately 15 adult C. felis fleas previously dispensed into 24-well plates. The plates are then incubated in a double-chambered device. Visual evaluation for mortality is performed at 48 hours post-treatment. Compound efficacy at a given dose is expressed as percentage mortality and determined by normalization to positive and negative controls. A dose response series is implemented to determine EC50 values.
The structurally closest prior art compound “P23” of WO 2016/030229 is characterized vis-à-vis selected N-oxide compounds of formula (I), (Ia) and (Ib) with regard to their potency in in vitro screening assay to test ingestion activity against adult fleas (Ctenocephalides felis) (alternative method according to Example 7).

[4] = tested on: Plutella xylostella; assay: Insecticidal test on Plutella xylostella; assay type: in vivo; details: 144 h, Chinese cabbage seedling dip, 6 days after the dip treatment, read-out: activity level (corrected mortality rate)
Experimental: Example 15: Insecticidal Test on Plutella xylostella
The N-oxide compounds of formula (I), (Ia) and (Ib) of the present invention or salts thereof are separately dispersed in water and diluted to 500 ppm. Ten adults of Plutella xylostella are released onto Chinese cabbage seedlings and allowed to lay eggs thereon. 2 days after the release of the adults, the seedling is dipped in the dispersion for about 30 seconds. After air dried, the seedling is kept in a room at 25° C. 6 days after the dip treatment, the numbers of the dead and alive insects are counted. The corrected mortality rate is calculated according to the following formula and the insecticidal activity is evaluated according to the following criteria.
(§1) [formula] [formula] • A: the corrected mortality rate is 100% • B: the corrected mortality rate is 90 to 99% • C: the corrected mortality rate is 80 to 89% • D: the corrected mortality rate is 50 to 79%

[5] = tested on: Laodelphax striatellus; assay: Insecticidal test on Laodelphax striatellus; assay type: in vivo; details: 192 h, rice seedling dip, 3rd-instar nymphs, 8 days after inoculation, read-out: activity level (corrected mortality rate)
Experimental: Example 16: Insecticidal Test on Laodelphax striatellus
The N-oxide compounds of formula (I), (Ia) and (Ib) of the present invention or salts thereof are separately dispersed in water and diluted to 500 ppm. Rice plant seedlings are dipped in the dispersion for about 30 seconds. After air dried, the seedlings are put into a separate glass test tube and inoculated with ten 3rd-instar nymphs of Laodelphax striatellus and then the glass test tube is kept in a room at 25° C. 8 days after the inoculation, the numbers of the dead and alive insects are counted. The corrected mortality rate is calculated according to the following formula and the insecticidal activity is evaluated according to the following criteria.
as §1

[6] = tested on: Spodoptera litura; assay: Insecticidal test on Spodoptera litura; assay type: in vivo; details: foliar, 192 h, cabbage leaf dip, 2nd-instar larvae, 8 days after inoculation, read-out: activity level (corrected mortality rate)
Experimental: Example 14: Insecticidal Test on Spodoptera litura
The N-oxide compounds of formula (I), (Ia) and (Ib) of the present invention or salts thereof are separately dispersed in water and diluted to 500 ppm. Cabbage leaves are dipped in the dispersion for about 30 seconds. After air dried, the leaves are placed in a plastic Petri dish with a diameter of 9 cm and inoculated with ten 2nd-instar larvae of Spodoptera litura, after which the dish is closed and then allowed to stand in a room at 25° C. 8 days after the inoculation, the numbers of the dead and alive insects are counted. The corrected mortality rate is calculated according to the following formula and the insecticidal activity is evaluated according to the following criteria.
as §1

[7] = tested on: A. aegypti L1 larvae; assay: Screening against larvae of Aedes aegypti; details: 48 h at 27° C., percentage of mortality
Experimental: Example 3: Screening Method to Test Activity of N-Oxide Compounds of Formula (I), (Ia) or (Ib) Against Larvae of Aedes aegypti
Eight A. aegypti L1 larvae in a total volume of 64 μL water are added to 384-well microplates containing N-oxide compounds of formula (I), (Ia) and (Ib) formulated in 100% DMSO. The plates are incubated for 48 h at 27° C. Individual well images are acquired and analyzed using a pipeline to quantitatively assess the amount of larvae biomass accumulating at the bottom of the well. The efficacy of a compound at a given dose is expressed as “percentage of mortality” and determined by comparison to average biomass descriptors of positive and negative control wells containing 1.0 μM Fipronil or DMSO only, respectively. Dose response assay are conducted to determine an EC50 value.

[8] = tested on: adult R. sanguineus ticks; assay: Contact activity against adult Rhipicephalus sanguineus; details: mortality at 48 hours post-treatment
Experimental: Example 5: Screening Method to Test Contact Activity of N-Oxide Compounds of Formula (I), (Ia) or (Ib) Against Adult Rhipicephalus sanguineus
N-oxide compounds of formula (I), (Ia) and (Ib) formulated in 100% DMSO are diluted in a solution containing acetone and Triton X-100 (0.02%). The resulting formulation is used to coat the inner walls of glass scintillation vials and the filter paper covering the cap of the vial. Once dried, ten adult R. sanguineus ticks are added to the vials. The vials are incubated at 24° C., 95% relative humidity, and 12 hours of light/12 hours of dark until evaluation. Ticks are visually evaluated for mortality at 48 hours post-treatment. Compound efficacy at a given dose is expressed as percentage mortality. A dose response series was implemented to determine EC50 values.

SMILES	EC50 [1] [µM]	EC50 [2] [µM]	EC50 [3] [µM]	mortality at 500 ppm [4] [%]	mortality at 500 ppm [5] [%]	mortality at 500 ppm [6] [%]	EC50 [7] [µM]	EC50 [8] [µM]
CCS(=O)(=O)c1cc(-c2noc(C3CC3)n2)cnc1-c1nc2cc(C(F)(F)C(F)(F)F)n[n+]([O-])c2n1C [Compound 1, 6-[5-(5-cyclopropyl-1,2,4-oxadiazol-3-yl)-3-(ethanesulfonyl)pyridin-2-yl]-7-methyl-3-(1,1,2,2,2-pentafluoroethyl)-7H-imidazo[4,5-c]pyridazin-1-ium-1-olate]	10 to 100	< 10	0.783	100	100			
CCS(=O)(=O)c1cc(-c2noc(C3CC3)n2)cnc1-c1nc2cc(C(F)(F)C(F)(F)F)[n+]([O-])nc2n1C [Compound 2, 6-[5-(5-cyclopropyl-1,2,4-oxadiazol-3-yl)-3-(ethanesulfonyl)pyridin-2-yl]-7-methyl-3-(1,1,2,2,2-pentafluoroethyl)-7H-imidazo[4,5-c]pyridazin-2-ium-2-olate]	10 to 100	< 10						
CCS(=O)(=O)c1cc(-c2noc(C3CC3)n2)c[n+]([O-])c1-c1nc2cc(C(F)(F)C(F)(F)F)nnc2n1C [Compound 3, 5-(5-cyclopropyl-1,2,4-oxadiazol-3-yl)-3-(ethanesulfonyl)-2-[7-methyl-3-(1,1,2,2,2-pentafluoroethyl)-7H-imidazo[4,5-c]pyridazin-6-yl]pyridin-1-ium-1-olate]		< 10						
CCS(=O)(=O)c1cc(-c2noc(C3CC3)n2)c[n+]([O-])c1-c1nc2cc(C(F)(F)C(F)(F)F)n[n+]([O-])c2n1C [Compound 4, 5-(5-cyclopropyl-1,2,4-oxadiazol-3-yl)-3-(ethanesulfonyl)-2-[7-methyl-1-oxido-3-(1,1,2,2,2-pentafluoroethyl)-7H-imidazo[4,5-c]pyridazin-1-ium-6-yl]pyridin-1-ium-1-olate]		10 to 100						
CCS(=O)(=O)c1cc(-c2noc(C3(C(F)(F)F)CC3)n2)cnc1-c1n(C)c2ncc(C(C)(F)F)cc2[n+]1[O-] [Compound 7]			0.41					
CCS(=O)(=O)c1cc(-c2noc(C3(C(F)(F)F)CC3)n2)cnc1-c1nc2cc(C(C)(F)F)n[n+]([O-])c2n1C [Compound 8]	10 to 100	< 10	0.141	100	100	100		
CCS(=O)(=O)c1cc(-c2ccc(C3CC3)cc2)c[n+]([O-])c1-c1nc2cc(C(F)(F)C(F)(F)F)cnc2n1C [Compound 23]		10 to 100						
CCS(=O)(=O)c1cc(-c2ccc(C3(F)CC3)cc2)c[n+]([O-])c1-c1nc2cc(C(F)(F)C(F)(F)F)nnc2n1C [Compound 27]		< 10	0.46	100	100		< 0.04	
CCS(=O)(=O)c1cc(-c2cc(C3CC3)ccn2)cnc1-c1nc2cc(C(F)(F)C(F)(F)F)c[n+]([O-])c2n1C [Compound 29]		10 to 100					0.04 to 0.05	
CCS(=O)(=O)c1cc(-c2noc(C3CC3)n2)cnc1-c1nc2cc(C(F)(F)C(F)(F)F)c[n+]([O-])c2n1C [Compound 33]	< 10	< 10	0.889	100	100			10 to 100
CCS(=O)(=O)c1cc(-c2ccc(C3(F)CC3)cc2)cnc1-c1nc2cc(C(F)(F)C(F)(F)F)n[n+]([O-])c2n1C [Compound 36]		10 to 100	1.06	100	100		< 0.04	10 to 100
CCS(=O)(=O)c1cc(-c2noc(C3CC3)n2)cnc1-c1nc2cc(C(C)(F)F)n[n+]([O-])c2n1C [Compound 39]			0.454	100	100			
CCS(=O)(=O)c1cc(-c2noc(C3CC3)n2)cnc1-c1nc2cc(C(C)(F)F)[n+]([O-])nc2n1C [Compound 40]			0.807					
CCS(=O)(=O)c1cc(-c2ccc(C3(C#N)CC3)cc2)c[n+]([O-])c1-c1nc2cc(C(F)(F)F)cn(CC(F)F)c-2c1F [Compound 44, 5-[4-(1-cyanocyclopropyl)phenyl]-2-[4-(2,2-difluoroethyl)-3-fluoro-6-(trifluoromethyl)-4H-pyrrolo[3,2-b]pyridin-2-yl]-3-(ethanesulfonyl)pyridin-1-ium-1-olate]	10 to 100							
CCS(=O)(=O)c1cc(-c2ccc(C3(F)CC3)cc2)c[n+]([O-])c1-c1nc2cc(C(F)(F)C(F)(F)F)n[n+]([O-])c2n1C [Compound 45]		< 10					< 0.04	
